Data reported in ChEMBL document CHEMBL5523742 (J Med Chem, 2024).
Activity calls are given as the source filed them. The calls are words filed in the database; no cut-off is given here. Numbered stars: 1 amine (or outer) side, 2 acyl side, 3 side chain; on linkers, the order of the positions; unused ones are H or OH. Square brackets hold non-standard residues; d marks the D form. Side chains are listed from the residue outwards. Peptide text beside a SMILES is read from it. * marks the point of attachment. ξ: configuration not given here. C20 diacid = O=C(O)CCCCCCCCCCCCCCCCCCC(=O)*; γGlu = O=C(O)[C@H](CCC(=O)[*:2])N[*:1]; ξγGlu = O=C(O)C(CCC(=O)[*:2])N[*:1]; AEEA = NCCOCCOCC(=O)O; Aib = CC(C)(N)C(=O)O

Assays:
Mus musculus [1] = experiment: Protection against diet-induced obesity in sc dosed C57BL/6JRj mouse model assessed as reduction in food intake administered once daily for 28 days and measured after 2 to 3 days; format: functional, organism-based; conditions: dose 3-30 nmol/kg, time 28-31 day
Homo sapiens = species on record: Homo sapiens; experiment: Selectivity index, ratio of EC50 for agonist activity human SCTR stably expressed in CHO-K1 cells assessed as […] in cAMP accumulation to EC50 for agonist activity human GLP-1R stably expressed in CHO-K1 cells assessed as […] in cAMP accumulation; format: cell-based
Mus musculus [2] = experiment: Protection against diet-induced obesity in C57BL/6JRj mouse model assessed as reduction in whole-body adipose tissue mass at 3 to 30 nmol/kg administered once daily for 28 days; format: functional, organism-based; conditions: dose 3-30 nmol/kg, time 28.0 day
[3] = target: T1, Gastric inhibitory polypeptide receptor (Homo sapiens) (UniProt P48546); experiment: Activation of GIPR (unknown origin) upto 3000 nM
T1 sequence (whole entry): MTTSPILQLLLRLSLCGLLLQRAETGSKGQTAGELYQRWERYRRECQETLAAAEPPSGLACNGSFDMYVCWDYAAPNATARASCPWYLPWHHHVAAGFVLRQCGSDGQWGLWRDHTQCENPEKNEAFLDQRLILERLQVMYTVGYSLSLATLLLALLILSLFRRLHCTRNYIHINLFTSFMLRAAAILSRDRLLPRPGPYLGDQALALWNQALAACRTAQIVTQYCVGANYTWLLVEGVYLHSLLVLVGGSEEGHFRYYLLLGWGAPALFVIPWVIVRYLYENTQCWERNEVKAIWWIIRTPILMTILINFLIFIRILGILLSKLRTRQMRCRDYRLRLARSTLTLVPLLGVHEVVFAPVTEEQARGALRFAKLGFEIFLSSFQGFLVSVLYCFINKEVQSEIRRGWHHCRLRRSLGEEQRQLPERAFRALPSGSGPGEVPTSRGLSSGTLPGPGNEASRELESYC

[4] = target: T2, Glucagon-like peptide 2 receptor (Homo sapiens) (UniProt O95838); experiment: Activation of GLP-2R (unknown origin) upto 3000 nM
T2 sequence (whole entry): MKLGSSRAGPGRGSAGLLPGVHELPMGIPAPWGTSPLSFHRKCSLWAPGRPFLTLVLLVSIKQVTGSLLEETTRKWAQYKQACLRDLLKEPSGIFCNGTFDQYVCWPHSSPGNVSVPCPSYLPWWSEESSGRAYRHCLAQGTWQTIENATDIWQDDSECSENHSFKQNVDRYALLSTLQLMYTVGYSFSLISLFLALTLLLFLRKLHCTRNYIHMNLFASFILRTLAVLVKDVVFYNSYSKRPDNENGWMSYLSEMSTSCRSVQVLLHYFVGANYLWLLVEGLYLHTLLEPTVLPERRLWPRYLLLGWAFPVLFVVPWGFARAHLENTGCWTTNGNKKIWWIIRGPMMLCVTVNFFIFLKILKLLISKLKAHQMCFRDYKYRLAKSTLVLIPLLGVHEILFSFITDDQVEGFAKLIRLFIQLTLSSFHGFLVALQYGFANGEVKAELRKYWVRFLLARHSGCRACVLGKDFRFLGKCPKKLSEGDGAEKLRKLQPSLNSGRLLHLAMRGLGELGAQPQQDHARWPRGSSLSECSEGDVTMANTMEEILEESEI

[5] = target: Glucagon receptor (Homo sapiens) (UniProt P47871); experiment: Activation of GCGR (unknown origin) upto 3000 nM
[6] = Drug concentration in sc dosed C57BL/6JRj mouse plasma administered once daily for 28 days and measured after 24 hrs by LC-MS/MS analysis; format: ADME, organism-based; conditions: in vivo, 696 h, dose 3-30 nmol/kg, time 29 day
[7] = Chemical stability of compound at pH 8 assessed as compound degradation; format: physicochemical; conditions: buffer; for degraded: read-out: Drug degradation
[8] = Toxicity in sc dosed C57BL/6JRj mouse model assessed as reduction in body weight administered once daily for 28 days; format: organism-based; conditions: in vivo, 672 h, dose 3-30 nmol/kg, time 28 day
[9] = Chemical stability of compound at pH 7 assessed as compound degradation; format: physicochemical; conditions: buffer
[10] = target: Glucagon-like peptide 1 receptor (Homo sapiens, UniProt P43220); experiment: Agonist activity human GLP-1R stably expressed in CHO-K1 cells assessed as […] in cAMP accumulation incubated for 30 mins by TR-FRET assay; format: functional, cell-based
Secretin receptor = Secretin receptor (Homo sapiens, UniProt P47872); experiment: Agonist activity human SCTR stably expressed in CHO-K1 cells assessed as […] in cAMP accumulation incubated for 30 mins by TR-FRET assay; format: functional, cell-based
Secretin receptor, sequence (P47872 whole entry): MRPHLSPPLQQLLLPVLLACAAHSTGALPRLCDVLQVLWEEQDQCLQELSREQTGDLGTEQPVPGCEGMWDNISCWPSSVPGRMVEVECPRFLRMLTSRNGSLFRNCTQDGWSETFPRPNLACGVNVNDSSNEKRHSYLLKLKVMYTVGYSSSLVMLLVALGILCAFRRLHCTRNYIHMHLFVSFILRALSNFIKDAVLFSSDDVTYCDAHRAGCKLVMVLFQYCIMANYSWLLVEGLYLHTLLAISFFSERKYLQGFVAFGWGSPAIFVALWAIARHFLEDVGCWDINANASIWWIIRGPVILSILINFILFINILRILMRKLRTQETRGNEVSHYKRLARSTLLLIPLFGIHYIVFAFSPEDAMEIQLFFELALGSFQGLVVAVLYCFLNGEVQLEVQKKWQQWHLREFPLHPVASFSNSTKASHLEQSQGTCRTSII

Glucagon receptor (Homo sapiens), sequence (P47871 whole entry): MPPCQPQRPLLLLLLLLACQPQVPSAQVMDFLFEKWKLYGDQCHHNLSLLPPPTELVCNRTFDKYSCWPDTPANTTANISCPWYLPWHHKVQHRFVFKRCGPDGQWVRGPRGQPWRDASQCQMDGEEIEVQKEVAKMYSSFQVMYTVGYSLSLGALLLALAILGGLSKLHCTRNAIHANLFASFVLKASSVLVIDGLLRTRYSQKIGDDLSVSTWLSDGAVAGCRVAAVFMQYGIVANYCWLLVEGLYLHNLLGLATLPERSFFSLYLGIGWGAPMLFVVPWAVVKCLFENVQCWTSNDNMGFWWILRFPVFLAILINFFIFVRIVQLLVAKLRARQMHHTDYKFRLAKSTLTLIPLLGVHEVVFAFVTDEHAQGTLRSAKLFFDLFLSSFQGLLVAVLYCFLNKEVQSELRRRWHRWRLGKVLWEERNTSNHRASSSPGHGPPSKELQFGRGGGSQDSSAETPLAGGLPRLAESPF
Glucagon-like peptide 1 receptor, sequence (P43220 whole entry): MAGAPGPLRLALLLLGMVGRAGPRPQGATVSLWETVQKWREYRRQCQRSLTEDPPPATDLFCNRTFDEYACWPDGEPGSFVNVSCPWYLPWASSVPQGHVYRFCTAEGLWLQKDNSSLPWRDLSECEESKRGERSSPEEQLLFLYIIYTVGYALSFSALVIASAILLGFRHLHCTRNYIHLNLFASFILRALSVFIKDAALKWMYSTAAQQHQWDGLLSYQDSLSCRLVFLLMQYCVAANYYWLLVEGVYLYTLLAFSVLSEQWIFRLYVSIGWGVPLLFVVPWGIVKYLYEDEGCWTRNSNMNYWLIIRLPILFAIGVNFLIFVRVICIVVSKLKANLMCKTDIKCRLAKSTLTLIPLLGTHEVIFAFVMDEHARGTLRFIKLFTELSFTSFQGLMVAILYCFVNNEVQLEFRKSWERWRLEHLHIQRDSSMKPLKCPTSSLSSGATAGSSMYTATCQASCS

CC(C)C[C@H](NC(=O)[C@H](Cc1ccccc1)NC(=O)[C@H](CCCNC(=N)N)NC(=O)[C@H](CCC(N)=O)NC(=O)[C@H](CC(C)C)NC(=O)C(C)(C)NC(=O)[C@H](C)NC(=O)[C@H](CCC(=O)O)NC(=O)[C@H](CCC(=O)O)NC(=O)[C@H](CCCCNC(=O)COCCOCCNC(=O)COCCOCCNC(=O)CCC(NC(=O)CCCCCCCCCCCCCCCCCCC(=O)O)C(=O)O)NC(=O)[C@H](CC(C)C)NC(=O)[C@H](Cc1ccc(O)cc1)NC(=O)[C@H](CO)NC(=O)[C@@H](NC(=O)[C@H](CC(=O)O)NC(=O)[C@H](CO)NC(=O)[C@@H](NC(=O)[C@H](Cc1ccccc1)NC(=O)[C@@H](NC(=O)CNC(=O)[C@H](CCC(=O)O)NC(=O)C(C)(C)NC(=O)[C@@H](N)Cc1c[nH]cn1)[C@@H](C)O)[C@@H](C)O)C(C)C)C(=O)N[C@@H](CCC(=O)O)C(=O)N[C@@H](Cc1c[nH]cn1)C(=O)N[C@@H](CC(C)C)C(=O)N[C@H](C(N)=O)C(C)C (some centres not stated) (H-H[Aib]EGTFTSDVSYLK([AEEA-AEEA-ξγGlu-C20 diacid])EEA[Aib]LQRFLEHLV-NH2)
Activity (Mus musculus [1]): Dose-Dependent Effect | Ratio EC50 (Homo sapiens): 10600 | Activity (Mus musculus [2]): Active | Activity [3]: inactive | Activity [4]: inactive | Activity [5]: inactive

CC(C)C[C@H](NC(=O)[C@H](Cc1ccccc1)NC(=O)[C@H](CCCNC(=N)N)NC(=O)[C@H](CCC(N)=O)NC(=O)[C@H](CC(C)C)NC(=O)C(C)(C)NC(=O)[C@H](C)NC(=O)[C@H](CCC(=O)O)NC(=O)[C@H](CCC(=O)O)NC(=O)[C@H](CCCCNC(=O)COCCOCCNC(=O)COCCOCCNC(=O)CC[C@H](NC(=O)CCCCCCCCCCCCCCCCCCC(=O)O)C(=O)O)NC(=O)[C@H](CC(C)C)NC(=O)[C@H](Cc1ccc(O)cc1)NC(=O)[C@H](CO)NC(=O)[C@@H](NC(=O)[C@H](CC(=O)O)NC(=O)[C@H](CO)NC(=O)[C@@H](NC(=O)[C@H](Cc1ccccc1)NC(=O)[C@@H](NC(=O)CNC(=O)[C@H](CCC(=O)O)NC(=O)C(C)(C)NC(=O)[C@@H](N)Cc1c[nH]cn1)[C@@H](C)O)[C@@H](C)O)C(C)C)C(=O)N[C@@H](CCC(=O)O)C(=O)N[C@@H](Cc1c[nH]cn1)C(=O)N[C@@H](CC(C)C)C(=O)N[C@H](C(N)=O)C(C)C (H-H[Aib]EGTFTSDVSYLK([AEEA-AEEA-γGlu-C20 diacid])EEA[Aib]LQRFLEHLV-NH2)
Cp [6]: Dose-Dependent Effect | degraded [7]: 0.55% | Activity [8]: Dose-Dependent Effect | degraded ([9]; read-out: Drug degradation): 1.4%

SECRETIN [listing 1 of 2 here]
Ratio EC50 (Homo sapiens): 1 10^-6No_unit

SECRETIN [listing 2 of 2 here]
EC50 [10]: 2300 nM | EC50 (Secretin receptor; cho-k1): 0.002 nM | Drug degradation [7]: 9% | Drug degradation [9]: 8.6%

CC[C@H](C)[C@H](NC(=O)[C@H](Cc1ccccc1)NC(=O)[C@H](CCC(=O)O)NC(=O)[C@H](CCCCN)NC(=O)[C@H](C)NC(=O)[C@H](C)NC(=O)[C@H](CCC(N)=O)NC(=O)CNC(=O)[C@H](CCC(=O)O)NC(=O)[C@H](CC(C)C)NC(=O)[C@H](Cc1ccc(O)cc1)NC(=O)[C@H](CO)NC(=O)[C@H](CO)NC(=O)[C@@H](NC(=O)[C@H](CC(=O)O)NC(=O)[C@H](CO)NC(=O)[C@@H](NC(=O)[C@H](Cc1ccccc1)NC(=O)[C@@H](NC(=O)CNC(=O)[C@H](CCC(=O)O)NC(=O)[C@H](C)NC(=O)[C@@H](N)Cc1c[nH]cn1)[C@H](C)O)[C@@H](C)O)C(C)C)C(=O)N[C@@H](C)C(=O)N[C@@H](Cc1c[nH]c2ccccc12)C(=O)N[C@@H](CC(C)C)C(=O)N[C@H](C(=O)N[C@@H](CCCCN)C(=O)NCC(=O)N[C@@H](CCCNC(=N)N)C(=O)O)C(C)C
EC50 (Secretin receptor): 800 nM | degraded [7]: 8.1%
